Data reported in patent publication US20100166708A1, “ANTIMICROBIAL AND ANTI-INFLAMMATORY THERAPIES AND COMPOSITIONS” (THE REGENTS OF THE UNIVERSITY OF CALIFORNIA, priority 2007, published 2010).
Values after ≈ are worked out from the molar mass of the structure shown. Values joined by “and” are separate entries in the source; they are usually repeats but may differ in a detail not shown here. Equal values may be shown once. Read-outs that look alike come from different tables or passages of the source.

Experiments:
[1] = ANTS/DPX leakage from lipid vesicles; conditions: incubated with lipid vesicles for 1 hour
Experimental: Both delta-haemolysin and PSMdelta were evaluated for their ability to perforate synthetic lipid vesicles. Lipid vesicles were made with a 2:1 molar ratio of POPC to POPG. The lipid vesicles, extruded through a 200 nm polycarbonate film, encapsulated the fluorescent dye, ANTS, and a quencher: DPX. Upon membrane perforation, ANTS/DPX are released and separated, allowing ANTS to fluoresce at 530 nm.

[2] = system: GAS
[3] = Source text: (§1) Tryptophan emission is a sensitive indicator for the physical environment surrounding the amino acid (˜330 nm in a folded or hydrophobic environment; ˜355 nm in an unfolded or aqueous environment).
[4] = remark: listed apart in the source
Source text: Sequestration of tryptophan (Trp) can be observed through blue shift in wavelength of photon emission after excitation at 290 nm. […] (c) overlay of emission spectra.
as §1

[5] = system: GAS membranes; experiment: SEM analysis of GAS membranes; format: cell-based, Group A Streptococcus; conditions: 16 μM peptide

| Molecule | ANTS fluorescence at 530 nm (vesicle leakage) [1] | MBC [2] | MIC [2] | MIC ([2]; listed as Synthetic delta-haemolysin) | MIC of delta-haemolysin in the presence of PSMdelta ([2]; with 2 μM PSMdelta) | deltaG^1(H2O) ([3]; 5 μM peptide) | midpoint of the unfolding curve ([3]; 5 μM peptide) | deltaG^1(H2O) ([3]; 25 μM peptide) | midpoint of the unfolding curve ([3]; 25 μM peptide) | deltaG^1(H2O) ([3]; 25 μM peptide, figure legend) | tryptophan emission ([4]; before incubation with lipid vesicles) | tryptophan emission ([4]; incubation with lipid vesicles) | tryptophan emission ([4]; lipid vesicles plus urea) | membrane effect seen by SEM [5] |
| --- | --- | --- | --- | --- | --- | --- | --- | --- | --- | --- | --- | --- | --- | --- |
| MSIVSTIIEVVKTIVDIVKKFKK (listed as Staphylococcus epidermidis) [PSMdelta, peptide identified in S. epidermidis fraction 37, tested as synthetic peptide] | Dose-dependent fluorescence | – | – | – | – | – | – | – | – | – | – | – | – | – |
| CC[C@H](C)[C@H](NC(=O)[C@H](Cc1c[nH]c2ccccc12)NC(=O)[C@H](CCCCN)NC(=O)[C@@H](NC(=O)[C@H](CC(C)C)NC(=O)[C@H](CC(=O)O)NC(=O)CNC(=O)[C@@H](NC(=O)[C@@H](NC(=O)[C@H](CO)NC(=O)[C@@H](NC(=O)[C@@H](NC(=O)[C@H](CC(=O)O)NC(=O)[C@H](C)NC(=O)[C@H](C)NC(=O)[C@@H](N)CCSC)[C@@H](C)CC)[C@@H](C)CC)[C@@H](C)O)[C@@H](C)CC)C(C)C)C(=O)N[C@H](C(=O)N[C@@H](CC(=O)O)C(=O)N[C@H](C(=O)N[C@H](C(=O)N[C@@H](CC(N)=O)C(=O)N[C@@H](CCCCN)C(=O)N[C@@H](Cc1ccccc1)C(=O)N[C@@H](CCCCN)C(=O)N[C@@H](CCCCN)C(=O)O)C(C)C)[C@@H](C)O)[C@@H](C)CC [delta-haemolysin] | Dose-dependent fluorescence | 16 µM (≈ 45.1 µg/mL) | 8 µM (≈ 22.6 µg/mL) | 16 µM (≈ 45.1 µg/mL) | 4 µM | 5.98 kJ/mol | 2.14 M urea | 6.57 kJ/mol | 3.20 M urea and 3.2 M urea | 6.57 kJ/mol | 339 nm | 332 nm | 335 nm | membrane blebbing and disruption |
| CRAMP [reference compound] | – | – | – | – | – | – | – | – | – | – | – | – | – | Membrane disruption |
